One data set in a line: in vivo. The settings on record: mouse, po.
For a further data set, the system named is hyperuricemia rats. Description: pharmacodynamic screening in rat hyperuricemia model (exogenous uric acid administered, uric acid decomposition inhibited). The class given is in vivo, SD rats. The following applies: for Serum uric acid level, Value after 3 h of drug administration: 10 mg/kg oral, 3 h after first administration, model group 174.4 ± 39.9, blank 53.9 ± 12.8; for uric acid-lowering effect (in words): 3 h after drug administration, febuxostat and ethyl ester 14 mg/kg oral; for uric acid-lowering effect (in words) / p, uric acid level 3 h after drug administration compared with the blank group: F compounds 10 mg/kg; for p, uric acid level 3 h after drug administration compared with the blank group: febuxostat 14 mg/kg oral.

A further data set concerns ICR mice. The settings on record: for Autopsy results of survival animals: 3000 mg/kg ig; for Abnormal reactions within 12 hours from ig administration: F compounds 3000 mg/kg; for Number of dead animals: ig 3000 mg/kg, 10 mice; for death, preliminary experiments / toxic reactions, preliminary experiments: intragastric 1600 mg/kg.
Where [1] appears, read: formal test, all dose groups, febuxostat high-dose group.
The mark [2] stands for this setting: formal test, febuxostat high-dose group.

Structures are written as SMILES. Read-outs that look alike come from different tables or passages of the source.

As to `Cc1nc(-c2ccc(OCC(C)C)c(C#N)c2)sc1C(=O)OCCO` [Compound F-1A], in the data set “in vivo”, the LD50 (usually the dose at which mortality reaches 50%) at 14 days is 3000 mg/kg. Further, in “in vivo” (3000 mg/kg), the LD50 at 14 days is no less than 3000 mg/kg. For the same molecule, in the data set on hyperuricemia rats, the “Serum uric acid level, Value after 3 h of drug administration” value (from here on “Serum uric acid level, Value after 3 h”) was 71.0 ± 24.4^a3b3c1 μmol/L. Further, the “Autopsy results of survival animals” value in the data set on ICR mice (formal test) was “No obvious abnormalities were observed in the organs”. For the same molecule, in the data set on ICR mice (setting [1]), the “animal deaths within 24 hours from the administration” value (“animal deaths within 24 hours” for short) is “no animal deaths were observed”. In the data set with ICR mice (setting [2]), the “Abnormal reactions within 12 hours from ig administration” value (from here on “Abnormal reactions within 12 hours”) is given as “no abnormalities were observed”. For the same molecule, the “Number of dead animals” value with ICR mice was 0. In addition, in the data set on ICR mice (mice), the “death, preliminary experiments” value is on record as “no animal died” and the “toxic reactions, preliminary experiments” value is given as “no obvious toxicity symptom was observed”.

In turn, `Cc1nc(-c2ccc(OCC(C)C)c(C#N)c2)sc1C(=O)OCC(O)CO` (centres unmarked) [Compound F-1B] registered an LD50 at 14 days in the data set “in vivo” of 3000 mg/kg. The same molecule gave an LD50 at 14 days in the data set “in vivo” (3000 mg/kg) of no less than 3000 mg/kg. In addition, in the data set on hyperuricemia rats, the “Serum uric acid level, Value after 3 h” value is 67.5 ± 19.4^a3b3 μmol/L; the “uric acid-lowering effect (in words)” value is given as “very obvious uric acid-lowering effects”; the “p, uric acid level 3 h after drug administration compared with the blank group” value is “no significant difference”. In addition, in the data set with ICR mice (formal test), the “Autopsy results of survival animals” value was “No obvious abnormalities were observed in the organs”. The “Abnormal reactions within 12 hours” value in the data set with ICR mice (setting [2]) is reported as “no abnormalities were observed”. In the data set on ICR mice, the “Number of dead animals” value turned out to be 0. For the same molecule, the “toxic reactions, preliminary experiments” value with ICR mice (mice) is “no obvious toxicity symptom was observed”. The “animal deaths within 24 hours” value in the data set on ICR mice (mouse, in vivo) is listed as “no animal deaths were observed”.

In the case of `Cc1nc(-c2ccc(OCC(C)C)c(C#N)c2)sc1C(=O)NCC(=O)O` [Compound F-2A], the LD50 at 14 days in “in vivo” was determined as 3000 mg/kg. In the data set “in vivo” (3000 mg/kg), this molecule displayed an LD50 at 14 days of no less than 3000 mg/kg. In addition, in the data set on hyperuricemia rats, the “Serum uric acid level, Value after 3 h” value is 78.3 ± 25.1^a3b3c2 μmol/L and the “p, uric acid level 3 h after drug administration compared with the blank group” value is less than 0.01. In the data set on ICR mice (formal test), the “Autopsy results of survival animals” value is “No obvious abnormalities were observed in the organs”. For the same molecule, the “animal deaths within 24 hours” value in the data set with ICR mice (setting [1]) is listed as “no animal deaths were observed”. Also, the “Abnormal reactions within 12 hours” value in the data set with ICR mice (setting [2]) is listed as “no abnormalities were observed”. In the data set with ICR mice, the “Number of dead animals” value turned out to be 0. Also, in the data set with ICR mice (mice), the “death, preliminary experiments” value is “no animal died” and the “toxic reactions, preliminary experiments” value is “no obvious toxicity symptom was observed”.

Consider `Cc1nc(-c2ccc(OCC(C)C)c(C#N)c2)sc1C(=O)NC(C)C(=O)O` (centres unmarked) [Compound F-2B], for which, in the data set with hyperuricemia rats, the “Serum uric acid level, Value after 3 h” value is recorded as 70.3 ± 16.4^a3b3c1 μmol/L. Moreover, in the data set with ICR mice (formal test), the “Autopsy results of survival animals” value is reported as “No obvious abnormalities were observed in the organs”. Besides, the “animal deaths within 24 hours” value in the data set on ICR mice (setting [1]) was “no animal deaths were observed”. In addition, the “Abnormal reactions within 12 hours” value in the data set with ICR mice (setting [2]) is “no abnormalities were observed”. Besides, in the data set on ICR mice, the “Number of dead animals” value was determined as 0. This molecule registered an LD50/Maximum dose with ICR mice (ig once, mice, 14 days observation, Bliss method, febuxostat: LD50, F compounds: maximum administration dose, no deaths) of 3000 mg/kg. Besides, in the data set with ICR mice (mice), the “death, preliminary experiments” value is “no animal died” and the “toxic reactions, preliminary experiments” value is recorded as “no obvious toxicity symptom was observed”.

On to `Cc1nc(-c2ccc(OCC(C)C)c(C#N)c2)sc1C(=O)N1CCC[C@H]1C(=O)O` [Compound F-2D], for which the LD50 at 14 days in the data set “in vivo” is 3000 mg/kg; in “in vivo” (3000 mg/kg), no less than 3000 mg/kg. For the same molecule, the “Serum uric acid level, Value after 3 h” value in the data set on hyperuricemia rats is reported as 69.1 ± 23.4^a3b3c1 μmol/L. In addition, the “Autopsy results of survival animals” value in the data set on ICR mice (formal test) was “No obvious abnormalities were observed in the organs”. Also, the “animal deaths within 24 hours” value with ICR mice (setting [1]) is “no animal deaths were observed”. In the data set on ICR mice (setting [2]), the “Abnormal reactions within 12 hours” value was “no abnormalities were observed”. For the same molecule, the “Number of dead animals” value in the data set with ICR mice is on record as 0. Further, the “death, preliminary experiments” value with ICR mice (mice) is given as “no animal died”. The “toxic reactions, preliminary experiments” value with ICR mice (mice) is on record as “no obvious toxicity symptom was observed”.

Molecule `Cc1nc(-c2ccc(OCC(C)C)c(C#N)c2)sc1C(=O)OCCCN(C)CCCO` [Compound F-3B] had an LD50 at 14 days in the data set “in vivo” of 3000 mg/kg. This molecule also displayed an LD50 at 14 days in “in vivo” (3000 mg/kg) of no less than 3000 mg/kg. In the data set on hyperuricemia rats, the “Serum uric acid level, Value after 3 h” value is given as 66.3 ± 17.1^a3b3 μmol/L; the “uric acid-lowering effect (in words)” value is given as “very obvious uric acid-lowering effects”; the “p, uric acid level 3 h after drug administration compared with the blank group” value was “no significant difference”. The “Autopsy results of survival animals” value in the data set with ICR mice (formal test) is “No obvious abnormalities were observed in the organs”. The “animal deaths within 24 hours” value with ICR mice (setting [1]) is “no animal deaths were observed”. The “Abnormal reactions within 12 hours” value in the data set with ICR mice (setting [2]) is reported as “no abnormalities were observed”. The “Number of dead animals” value in the data set with ICR mice amounted to 0. For the same molecule, in the data set with ICR mice (mice), the “death, preliminary experiments” value was “no animal died” and the “toxic reactions, preliminary experiments” value is “no obvious toxicity symptom was observed”.

As to `Cc1nc(-c2ccc(OCC(C)C)c(C#N)c2)sc1C(=O)NC1C(O)OC(CO)C(O)C1O` (centres unmarked) [Compound F-4A], the results for the LD50 at 14 days in the data set “in vivo” and in “in vivo” (3000 mg/kg) were 3000 mg/kg and no less than 3000 mg/kg, respectively. The “Serum uric acid level, Value after 3 h” value in the data set on hyperuricemia rats is recorded as 71.4 ± 19.6^a3b3c1 μmol/L. Moreover, the “Autopsy results of survival animals” value with ICR mice (formal test) is listed as “No obvious abnormalities were observed in the organs”. The “Abnormal reactions within 12 hours” value with ICR mice (setting [2]) was “no abnormalities were observed”. Moreover, the “Number of dead animals” value with ICR mice was determined as 0. For the same molecule, the “toxic reactions, preliminary experiments” value in the data set on ICR mice (mice) is “no obvious toxicity symptom was observed”. For the same molecule, the “animal deaths within 24 hours” value with ICR mice (mouse, in vivo) is given as “no animal deaths were observed”.

(Values after patent US11401247B2, “Thiazole-5-carboxylic acid derivative and preparation method and use thereof” (XIANGBEI WELMAN PHARMACEUTICAL CO., LTD, priority 2018, dated 2022).)
